{
  "source": "patent US12285434B2",
  "about": "“Therapeutic, preventive, or improvement agent for inflammatory disease and allergic disease” (The University of Tokyo, priority 2018, dated 2025)",
  "key": {"[1]": {"system": "eNOS phosphorylation in HUVECs", "test": "Histamine-induced eNOS phosphorylation (Western blot)", "format": "cell-based, human", "conditions": "pretreatment 0.1 μM, 15 minutes; histamine 10 μM, 5 minutes", "experimental": "In Examples 4 to 6, human umbilical vein endothelial cells (hereinafter, sometimes referred to as “HUVECs”, manufactured by Lonza) were cultured in EGM-2 (manufactured by Lonza K.K.). These cells (passages 4 to 9) were used for experiments after 4-hour starvation in EBM-2 (manufactured by Lonza K.K.) containing 2% FBS.\nTo the plates on which the HUVECs were cultured, 5,6-DiHETE was added so as to attain 100 nM, and, 15 minutes after the addition, histamine was added so as to attain 10 μM. Then, in order to measure the protein masses of phosphorylated eNOS and eNOS, 5 minutes after the administration of histamine, the HUVECs were lysed with a modified lysis buffer (50 mM Tris-HCl (pH 7.4), 0.1 mM EDTA, 0.1 mM EGTA, 1% NP-40 substitute, 0.1% SDS, 0.1% deoxycholic acid, 50 mM NaF, 1 mM Na3VO4, and 10 mM β-glycerophosphate). […] Bands were detected and quantified using an Odyssey system (manufactured by LI-COR Biosciences) (FIG. 5B). Specifically, the bands of phosphorylated eNOS and eNOS were detected by scanning (800 nm) with the Odyssey system, and their intensity (band brightness) was quantified. The phosphorylation level of eNOS (ratio of phosphorylated eNOS to eNOS) was quantified and evaluated by a relative value obtained by dividing the band brightness of phosphorylated eNOS by the band brightness of eNOS. […]"}, "ear vessels of the mice": {"system": "ear vessels of the mice", "test": "In vivo microscopy of ear vessels: FITC-dextran leakage and vascular diameter after histamine", "design": "species or system mouse", "experimental": "To visualize the ear vessels of the mice, 70 kDa fluorescein isothiocyanate-dextran (10 mg/kg, manufactured by Sigma-Aldrich) was injected intravenously. Then, immediately after the administration of fluorescein isothiocyanate-dextran, 5,6-DiHETE (0.1 μg) was administered by instillation (percutaneously administered) as a pretreatment, and this group of mice was designated as a “5,6-DiHETE-administered group.” As a control group, a group of mice not administered with 5,6-DiHETE was designated as a “[…]-administered group”. Then, 15 minutes after the administration by instillation, histamine (400 μg) was administered by instillation (percutaneously administered) into the ventral surface of the ears for both the groups. Next, the mice were placed on the stage of a microscope confocal microscope (ECLIPSE Ti with C1 confocal system, manufactured by Nikon Corporation), and their body temperatures were maintained at 37° C. Dextran leakage and vascular diameter in the ears were monitored every minute in a period from 0 to 30 minutes after the administration of histamine using EZ-C1 Free Viewer (manufactured by Nikon Corporation), and the dextran leakage, artery diameter and vein diameter were quantified according to the description of Omori, K. et al., British Journal of Pharmacology, 171:4879-4889 (2014). It is known that smooth muscle contraction reduces the downstream blood flow and limits the vascular leakage, whereas smooth muscle relaxation (increase of vascular diameter) increases the blood flow, thereby leading to vascular leakage."}, "[2]": {"system": "calcium ion concentration in HUVECs", "test": "Histamine-induced increase of calcium ion concentration (fura-2)", "format": "cell-based, human", "conditions": "histamine 10 μM", "experimental": "These cells (passages 4 to 9) were used for experiments after 4-hour starvation in EBM-2 (manufactured by Lonza K.K.) containing 2% FBS.\nHUVECs were incubated with a calcium fluorescence indicator (3 μg fura-2/AM containing 0.11% Cremophor EL) for 30 minutes and washed with an HEPES buffer three times. […] Then, 5 minutes after the addition of each reagent, histamine was added so as to attain 10 μM. In addition, a group to which histamine was added so as to attain 10 μM without pretreatment was also prepared. A cover slip was placed in a specialized airtight chamber mounted onto the stage of a microscope maintained at 37° C. The HUVECs were excited at 340 nm and 380 nm and the emitted fluorescence signal was measured every 3 seconds at 510 nm for 60 seconds. The fluorescence ratio (R:F340/F380) was determined using a fluorescence imaging system (AQUACOSMOS, manufactured by Hamamatsu Photonics K.K.). After the experiment, 1 μM ionomycin was added and the fluorescence changes were measured in the presence of 0 or 1.5 mM calcium ions. The calcium ion concentration was indicated as A fluorescence ratio. AUC was calculated 1 minute after each stimulus to evaluate the A fluorescence ratio. It is known that the increase of calcium ion concentration in endothelial cells promotes NO production by eNOS phosphorylation and […] smooth muscle cells (Garcia-Cardena, G. et al., Nature, 392: 821-824(1998); and Luo, Z. et al., The Journal of clinical investigation, 106: 493-499(2000))."}, "[3]": {"conditions": "0.1 μg pretreatment 15 minutes before histamine 400 μg"}},
  "data": [
    {"molecule": "CC/C=C\\C/C=C\\C/C=C\\C/C=C\\C[C@@H](O)[C@@H](O)CCCC(=O)O", "note": "(racemic) [5,6-DiHETE, (±) 5,6-dihydroxy-8Z,11Z,14Z,17Z-eicosatetraenoic acid]", "values": [
      {"measurement": "histamine-induced phosphorylation of eNOS (serine 1177)", "setting": "[1]", "result": "significantly reduced histamine-induced phosphorylation of eNOS"},
      {"measurement": "histamine-induced increase of vein diameter", "setting": "ear vessels of the mice; [3]", "result": "not inhibited"},
      {"measurement": "mean fluorescence intensity of FITC-dextran extravasation vs histamine-administered group", "setting": "ear vessels of the mice; [3]", "result": "significantly decreased"},
      {"measurement": "artery diameter as compared with arteries nonstimulated with histamine", "setting": "ear vessels of the mice; 0.1 μg pretreatment by instillation 15 minutes before histamine 400 μg", "result": "132±15", "unit": "%"},
      {"measurement": "calcium ion concentration, AUC at 1 minute after stimulation", "setting": "[2]; pretreatment 0.03 μM", "result": "7.8±2.3"},
      {"measurement": "calcium ion concentration, AUC at 1 minute after stimulation", "setting": "[2]; pretreatment 0.1 μM", "result": "5.9±1.5"},
      {"measurement": "calcium ion concentration, AUC at 1 minute after stimulation", "setting": "[2]; pretreatment 0.3 μM", "result": "1.8±1.1"}
    ]}
  ]
}
